Results reported in patent publication US9951028B2, “Agricultural chemicals” (REDAG CROP PROTECTION LTD, priority 2013, dated 2018).

Columns and labels:
Assay type in all cases: in vivo
[1] = test system: Capsella bursa-pastoris, (shepherd's-purse); experiment: Herbicidal efficacy screen, corrected necrosis
Description: (§1) Plants were obtained as seeds and were grown to the 2-4 true leaf stage. Plants were grown under laboratory conditions, individually in seed trays. Each plant (in an approximately 3 cm diameter plug) was then detached from the tray for spraying. The compounds were screened at a range of five concentrations, diluted in acetone and Tween™. A carrier only control was also conducted. Treatments were applied directly onto the plants, using a potter tower, at a specified application rate. One plant of each species was sprayed using a potter tower. The 3 different types of plants were placed on a 10 cm diameter platform directly beneath the potter sprayer and sprayed simultaneously. The growth of the plants and any Phytotoxicity effects were then assessed at intervals over 21 days, according to EPPO guideline PP1/135. In the tables below C represents a percentage increase in necrosis relative to the control of 0.1-50; B represents a percentage inhibition of 50-80; and A represents a percentage inhibition of 80-100. Certain compounds of the invention were screened for herbicidal efficacy against target plants: Amaranthus retroflexus (redroot pigweed), Abutilon theophrasti (China Jute): Capsella bursa-pastoris, (shepherd's-purse) Echinochloa crus-galli, Hordeum vulgare (Barley),

[2] = test system: Amaranthus retroflexus (redroot pigweed); experiment: Herbicidal efficacy screen, corrected necrosis
Description: as §1

[3] = test system: Abutilon theophrasti (China Jute); experiment: Herbicidal efficacy screen, corrected necrosis
Description: as §1

[4] = test system: white mustard Sinapsis alba; experiment: Herbicidal efficacy screen, potter tower spray, necrosis assessed
Description: (§2) Compounds 22, 23 and 24 were screened for herbicidal efficacy against target plants: garden cress, Lepidium sativum, common chickweed, Stellaria media, and white mustard […] alba Plants were obtained as seeds and were grown to the 2-4 true leaf stage. Plants were grown under laboratory conditions, individually in seed trays. Each plant (in an approximately 3 cm diameter plug) was then detached from the tray for spraying. The compounds were screened at a range of five concentrations, diluted in acetone and TweenTM. A carrier only control was also conducted. Treatments were applied directly onto the plants, using a potter tower, at a specified application rate. One plant of each species was sprayed using a potter tower. The 3 different types of plants were placed on a 10 cm diameter platform directly beneath the potter sprayer and sprayed simultaneously. The growth of the plants and any Phytotoxicity effects were then assessed at intervals over 21 days, according to EPPO guideline PP1/135. Five replicas were performed for each treatment, for each species. In the tables below C represents a percentage increase in necrosis relative to the control of 0.1-50; B represents a percentage inhibition of 50-80; and A represents a percentage inhibition of 80-100.

[5] = test system: common chickweed, Stellaria media; experiment: as above; conditions: 12.5 g/ha
Description: as §2

[6] = 6.25 g/ha, day 1 post application
[7] = 6.25 g/ha, day 7 post application
[8] = 12.5 g/ha, day 1 post application
[9] = 12.5 g/ha, day 7 post application
[10] = 25 g/ha, day 1 post application
[11] = 25 g/ha, day 7 post application
[12] = 50 g/ha, day 1 post application
[13] = 50 g/ha, day 7 post application
[14] = 100 g/ha, day 1 post application
[15] = 100 g/ha, day 7 post application

## CC(C)C(C)S(=O)(=O)NCc1cc(-n2c(=O)cc(C(F)(F)F)n(C)c2=O)c(F)cc1Cl (stereo not shown) [Compound 24, N-[[2-Chloro-4-fluoro-5-[3-methyl-2,6-dioxo-4-(trifluoromethyl)pyrimidin-1-yl]phenyl]methyl]-3-methyl-butane-2-sulfonamide]
[1]; [6]
  Average of corrected necrosis: C (C represents a percentage increase in necrosis relative to the control of 0.1-50)
[1]; [7]
  Average of corrected necrosis: A (A represents a percentage inhibition of 80-100)
[1]; [8]
  Average of corrected necrosis: 0%
[1]; [9]
  Average of corrected necrosis: B (B represents a percentage inhibition of 50-80)
[1]; [10]
  Average of corrected necrosis: C (C represents a percentage increase in necrosis relative to the control of 0.1-50)
[1]; [11]
  Average of corrected necrosis: A (A represents a percentage inhibition of 80-100)
[1]; [12]
  Average of corrected necrosis: C (C represents a percentage increase in necrosis relative to the control of 0.1-50)
[1]; [13]
  Average of corrected necrosis: A (A represents a percentage inhibition of 80-100)
[1]; [14]
  Average of corrected necrosis: C (C represents a percentage increase in necrosis relative to the control of 0.1-50)
[1]; [15]
  Average of corrected necrosis: A (A represents a percentage inhibition of 80-100)
[2]; [6]
  Average of corrected necrosis: C (C represents a percentage increase in necrosis relative to the control of 0.1-50)
[2]; [7]
  Average of corrected necrosis: A (A represents a percentage inhibition of 80-100)
[2]; [8]
  Average of corrected necrosis: C (C represents a percentage increase in necrosis relative to the control of 0.1-50)
[2]; [9]
  Average of corrected necrosis: A (A represents a percentage inhibition of 80-100)
[2]; [10]
  Average of corrected necrosis: C (C represents a percentage increase in necrosis relative to the control of 0.1-50)
[2]; [11]
  Average of corrected necrosis: A (A represents a percentage inhibition of 80-100)
[2]; [12]
  Average of corrected necrosis: C (C represents a percentage increase in necrosis relative to the control of 0.1-50)
[2]; [13]
  Average of corrected necrosis: A (A represents a percentage inhibition of 80-100)
[2]; [14]
  Average of corrected necrosis: C (C represents a percentage increase in necrosis relative to the control of 0.1-50)
[2]; [15]
  Average of corrected necrosis: A (A represents a percentage inhibition of 80-100)
[3]; [6]
  Average of corrected necrosis: 0%
[3]; [7]
  Average of corrected necrosis: A (A represents a percentage inhibition of 80-100)
[3]; [8]
  Average of corrected necrosis: 0%
[3]; [9]
  Average of corrected necrosis: A (A represents a percentage inhibition of 80-100)
[3]; [10]
  Average of corrected necrosis: 0%
[3]; [11]
  Average of corrected necrosis: A (A represents a percentage inhibition of 80-100)
[3]; [12]
  Average of corrected necrosis: 0%
[3]; [13]
  Average of corrected necrosis: A (A represents a percentage inhibition of 80-100)
[3]; [14]
  Average of corrected necrosis: C (C represents a percentage increase in necrosis relative to the control of 0.1-50)
[3]; [15]
  Average of corrected necrosis: A (A represents a percentage inhibition of 80-100)
[4]; [8]
  Average of necrosis: C (C represents a percentage increase in necrosis relative to the control of 0.1-50)
[4]; 12.5 g/ha, day 2 post application
  Average of necrosis: C (C represents a percentage increase in necrosis relative to the control of 0.1-50)
[4]; 12.5 g/ha, day 3 post application
  Average of necrosis: C (C represents a percentage increase in necrosis relative to the control of 0.1-50)
[4]; 12.5 g/ha, day 4 post application
  Average of necrosis: C (C represents a percentage increase in necrosis relative to the control of 0.1-50)
[4]; 12.5 g/ha, day 5 post application
  Average of necrosis: C (C represents a percentage increase in necrosis relative to the control of 0.1-50)
[4]; [9]
  Average of necrosis: C (C represents a percentage increase in necrosis relative to the control of 0.1-50)
[4]; 12.5 g/ha, day 10 post application
  Average of necrosis: C (C represents a percentage increase in necrosis relative to the control of 0.1-50)
[4]; [10]
  Average of necrosis: C (C represents a percentage increase in necrosis relative to the control of 0.1-50)
[4]; 25 g/ha, day 2 post application
  Average of necrosis: C (C represents a percentage increase in necrosis relative to the control of 0.1-50)
[4]; 25 g/ha, day 3 post application
  Average of necrosis: C (C represents a percentage increase in necrosis relative to the control of 0.1-50)
[4]; 25 g/ha, day 4 post application
  Average of necrosis: C (C represents a percentage increase in necrosis relative to the control of 0.1-50)
[4]; 25 g/ha, day 5 post application
  Average of necrosis: C (C represents a percentage increase in necrosis relative to the control of 0.1-50)
[4]; [11]
  Average of necrosis: C (C represents a percentage increase in necrosis relative to the control of 0.1-50)
[4]; 25 g/ha, day 10 post application
  Average of necrosis: C (C represents a percentage increase in necrosis relative to the control of 0.1-50)
[4]; [12]
  Average of necrosis: C (C represents a percentage increase in necrosis relative to the control of 0.1-50)
[4]; 50 g/ha, day 2 post application
  Average of necrosis: C (C represents a percentage increase in necrosis relative to the control of 0.1-50)
[4]; 50 g/ha, day 3 post application
  Average of necrosis: C (C represents a percentage increase in necrosis relative to the control of 0.1-50)
[4]; 50 g/ha, day 4 post application
  Average of necrosis: C (C represents a percentage increase in necrosis relative to the control of 0.1-50)
[4]; 50 g/ha, day 5 post application
  Average of necrosis: C (C represents a percentage increase in necrosis relative to the control of 0.1-50)
[4]; [13]
  Average of necrosis: C (C represents a percentage increase in necrosis relative to the control of 0.1-50)
[4]; 50 g/ha, day 10 post application
  Average of necrosis: C (C represents a percentage increase in necrosis relative to the control of 0.1-50)
[4]; [14]
  Average of necrosis: C (C represents a percentage increase in necrosis relative to the control of 0.1-50)
[4]; 100 g/ha, day 2 post application
  Average of necrosis: C (C represents a percentage increase in necrosis relative to the control of 0.1-50)
[4]; 100 g/ha, day 3 post application
  Average of necrosis: C (C represents a percentage increase in necrosis relative to the control of 0.1-50)
[4]; 100 g/ha, day 4 post application
  Average of necrosis: C (C represents a percentage increase in necrosis relative to the control of 0.1-50)
[4]; 100 g/ha, day 5 post application
  Average of necrosis: C (C represents a percentage increase in necrosis relative to the control of 0.1-50)
[4]; [15]
  Average of necrosis: C (C represents a percentage increase in necrosis relative to the control of 0.1-50)
[4]; 100 g/ha, day 10 post application
  Average of necrosis: C (C represents a percentage increase in necrosis relative to the control of 0.1-50)
[4]; 200 g/ha, day 1 post application
  Average of necrosis: C (C represents a percentage increase in necrosis relative to the control of 0.1-50)
[4]; 200 g/ha, day 2 post application
  Average of necrosis: C (C represents a percentage increase in necrosis relative to the control of 0.1-50)
[4]; 200 g/ha, day 3 post application
  Average of necrosis: C (C represents a percentage increase in necrosis relative to the control of 0.1-50)
[4]; 200 g/ha, day 4 post application
  Average of necrosis: C (C represents a percentage increase in necrosis relative to the control of 0.1-50)
[4]; 200 g/ha, day 5 post application
  Average of necrosis: C (C represents a percentage increase in necrosis relative to the control of 0.1-50)
[4]; 200 g/ha, day 7 post application
  Average of necrosis: C (C represents a percentage increase in necrosis relative to the control of 0.1-50)
[4]; 200 g/ha, day 10 post application
  Average of necrosis: C (C represents a percentage increase in necrosis relative to the control of 0.1-50)
[5]; day 1 post application
  Average of necrosis: C (C represents a percentage increase in necrosis relative to the control of 0.1-50)
[5]; day 2 post application
  Average of necrosis: C (C represents a percentage increase in necrosis relative to the control of 0.1-50)
